Test results as given in patent US20100069308A1, “Surfaces containing antibacterial polymers” (priority 2008, published 2010).

Legend:
[1] = tested on: E. coli; conditions: cited from earlier work
[2] = tested on: B. subtilis; conditions: cited from earlier work
[3] = tested on: bacterial colonies; assay: Antibacterial activity in the presence of biological serum (FIG. 1, number of bacterial colonies vs concentration); assay type: cell-based; conditions: after 24 hours in biological serum
Description: Due to their mechanism of action, such antibacterial peptides should not be susceptible to resistance. […] In FIG. 1, panels 100A and 100B show the number of bacterial colonies as a function of the concentration of pexiganan 101A/B and ID 1 103 A/B, after 2 and 24 hours respectively, in biological serum. […] Accordingly, a peptide alternative that kills bacteria by a mechanism similar to that of antibacterial peptides but without the biological susceptibility would provide greater protection against bacterial colonization.
FIG. 1 depicts the activity of ID 1 and an antibacterial peptide (pexiganan) in the presence of biological serum.

[4] = tested on: Streptococcus pneumoniae; conditions: cited from earlier work
[5] = tested on: Haemophilus influenzae; conditions: cited from earlier work
[6] = tested on: Staphylococcus aureus; conditions: cited from earlier work
[7] = tested on: Escherichia coli; conditions: cited from earlier work
[8] = tested on: Enterococcus faecalis; conditions: cited from earlier work
[9] = tested on: Psuedomonas aeruginosa; conditions: cited from earlier work

H—(NLys-Nspe-Nspe-NGlu-Nspe-Nspe)2-NH2 [ID 12]
E. coli MIC [1]: >110 µM
B. subtilis MIC [2]: 6.9 µM

H—(NLys-Nspe-Nspe-NLys-Nspe-NHis)2-NH2 [ID 10]
E. coli MIC [1]: 3.5 µM
B. subtilis MIC [2]: 6.9 µM

H—(NLys-Nssb-Nspe)4-NH2 [ID 2]
E. coli MIC [1]: 31 µM
B. subtilis MIC [2]: 3.9 µM

H—(NLys-Nrpe-Nrpe)4-NH2 [ID 3]
E. coli MIC [1]: 3.5 µM
B. subtilis MIC [2]: .88 µM

H—(NLys-Nspe-Nspe)2-NH2 [ID 4]
E. coli MIC [1]: 27 µM
B. subtilis MIC [2]: 27 µM

H—(NLys)4-(Nspe)8-NH2 [ID 14]
E. coli MIC [1]: 6.9 µM
B. subtilis MIC [2]: 1.7 µM

H-NLys-Nssb-Nspe-Nssb-Nspe-NLys-Nspe-NLys-Nssb-Nssb-Nspe-NLys-NH2 [ID 15]
E. coli MIC [1]: 3.1 µM
B. subtilis MIC [2]: 15 µM

H—(NLys-Nspe-Nspe)5-NH2 [ID 6]
E. coli MIC [1]: 5.5 µM
B. subtilis MIC [2]: 1.4 µM

H—(NLys-Nssb-Nspe-NLys-Nssb-Nsna)2-NH2 [ID 8]
E. coli MIC [1]: 7.2 µM
B. subtilis MIC [2]: .93 µM

H—(NLys-Nspe-Nspe-NLys-Nspe-Nsna)2-NH2 [ID 9]
E. coli MIC [1]: 3.3 µM
B. subtilis MIC [2]: 1.6 µM

H—(NGlu-Nspe-Nspe)4-NH2 [ID 13]
E. coli MIC [1]: >219 µM
B. subtilis MIC [2]: >219 µM

H—(NLys-Nspe-Nspe)3-NH2 [ID 5]
E. coli MIC [1]: 9.1 µM
B. subtilis MIC [2]: 1.2 µM

H—(NLys-Nspe-Nspe)4-NH2 [ID 1]
Activity (number of bacterial colonies) in biological serum [3]: retains activity
E. coli MIC [1]: 3.5 µM
B. subtilis MIC [2]: .88 µM
MIC [4]: 1.7 to 3.4 µM
MIC [5]: 6.9 µM
MIC [6]: 3.4 µM
MIC [7]: 14 to 28 µM
MIC [8]: 3.4 to 6.9 µM
MIC [9]: 28 µM

H—(NLys-Nsmb-Nspe)4-NH2 [ID 7]
E. coli MIC [1]: 7.4 µM
B. subtilis MIC [2]: .95 µM

H—(NLys-Nspe-Nspe-NLys-Nspe-L-Pro-(NLys-Nspe-Nspe)2-NH2 [ID 11]
E. coli MIC [1]: 3.1 µM
B. subtilis MIC [2]: 1.6 µM
